# According to patent publication US20250339415A1, “DISULFIDE COMPOUNDS AS MEDICAMENTS” (CYTACOAT AB, priority 2021, published 2025):
# Several values for one entry are separate records, joined by “and”; a condition that tells them apart may be missing. Equal entries are not always repeated. Structures can show the parent of a compound that is named as a salt.
# Legend:
# [1] = system: T-24 cells; assay: Cancer cell viability assay (XTT); assay type: cell-based, human; settings: for % cell survival / Absorbance unit / Absorbance unit - Blank: triplicate, (hydrochloride)
# Experimental: (§1) Two types of human uroepithelial cancer cells (124 and 5637) were tested in an XTT assay. “T24” cells were cultured in McCoy's 5A (Modified) Medium, Catalog number: 16600082 from GIBCO. “5637” cells were cultured in RPMI 1640 Medium, Catalog number: 21875034 from GIBCO. Different concentrations of 2-(Pyridyldithio)ethylamine (hydrochloride) (PDEA) (CAS: 106139-15-5): 12.5, 25, 50, 100 and 200 μM, were prepared in each cell culture medium.
# (§2) 1. 5×10^5 cells were seeded into 24-well plate overnight at 37-degree C. in 5% CO2.
# (§3) 2. 80% confluent cells were treated with 200 μl medium with different concentrations of PDEA and the control.
# (§4) 3. After 24 hrs, medium (MacCoy's 5a for T24, RPMI for 5637) was removed and cells were washed 2 times with 200 μl of pre-warmed PBS/well. 200 μl (96-well) of pre-prepared fresh medium containing XTT-menadione to wells were added (mentioned below).
# (§5) 4. Cells were incubated for at least 3 h at 37-degree C. Medium with XTT only in empty wells were served as background control.
# (§6) 5. The supernatant was transferred to 96-well plate and the concentration were measured at 450 nm and 690 nm. 690 nm was used as a background measurement and subtracted from 450 nm value.
# (§7) Menadione (172.18 g/mol, light sensitive): dissolve 1 mg/ml in absolute ethanol. XTT: 1 mg/ml dissolve in PBS, 0.2 μm filtrate sterilised, store at −20° C. (Sigma X4626). Pre-warm to 37° C. before use.
# (§8) Prepare solution: Add 2.15 μl of menadione/ml (final concentration 12.5 μM 0 2.15 mg/l) to 1 ml of XTT directly before use. Prepare XTT-menadione solution equal to 20% of the culture medium volume to be tested.
# (§9) Results are shown below and represented graphically in FIGS. 1 and 2. “Blank” is cell culture medium only.
# [2] = system: 5637 cells; assay: Cancer cell viability assay (XTT); assay type: cell-based, human; settings: for % cell survival / Absorbance unit / Absorbance unit - Blank: triplicate, (hydrochloride)
# Experimental: as §1, §2, §3, §4, §5, §6, §7, §8, §9
# [3] = system: Candida albicans; assay: Minimum inhibitory concentration (MIC), visible growth, YPD broth; assay type: cell-based
# Experimental: • 1. Using a sterile inoculating loop, transfer bacteria/Candida albicans from frozen stock culture and streak them on a fresh LA plate. • 2. Incubate the plate at 37° C. overnight (o/n) (18-24 h).
# • 1. Prepare bacterial culture by adding 20 ml Mueller Hinton broth (*) to a 250-ml Erlenmeyer flask with sidearm. • 2. Using a sterile inoculating loop, pick approximately 10 colonies from the o/n bacterial culture and transfer bacteria to the flask. • 3. Incubate the E-flask with bacteria on a rotating shaker at 37° C. until OD590=0.40. This OD should equal an approximate bacterial count of 1×10^8 cfu/ml (**) • This is measured using a colorimeter (or spectrophotometer). Set reference and press R (=reference) first, then measure the bacterial culture by pressing T (=test). • 4. At OD590 0.40, serially dilute the bacterial suspension 1:10 000 in Mueller Hinton broth to obtain a bacterial target concentration of 1×10^4 cfu/ml. Determine the initial inoculation by serially diluting 0.1 ml in 0.9 ml blanks of sterile PBS and plating 0.1 ml aliquots to LA plates, preferably. • 5. Different concentrations of the tested compound are prepared in 0.6-0.8 ml of the final dilution of bacterial suspension and placed in 2-ml test tubes. • 6. Incubate test tubes in an orbital shaker incubator at 37° C. for 24 h.
# • 7. Analyze visible growth, i.e. “Foggy” or “Clear”. MIC is being defined as the interval between the highest “Foggy” and the lowest “Clear” concentration of the compound.
# (*) When testing Candida albicans, Yeast extract Peptone Dextrose (YPD) broth is being used.
# (**) For Candida albicans it is equal to 1×10^7
# Different concentrations of PDEA were also prepared in Yeast extract Peptone Dextrose (YPD) broth. Candida albicans were inoculated to a concentration of 20 000 CFU/ml and incubated at 37° C. for 24 hours. Readouts were “Clear” and “Foggy”.
# Different concentrations of the quaternary ammonium PDEA (Example 2) were also prepared in Yeast extract Peptone Dextrose (YPD) broth. Candida albicans were inoculated to a concentration of 20 000 CFU/ml and incubated at 37° C. for 24 hours. Readouts were “Clear” and “Foggy”.
# Different concentrations of the Para position-PDEA” is (S)-4-pyridylthio cysteamine were also prepared in Yeast extract Peptone Dextrose (YPD) broth. Candida albicans were inoculated to a concentration of 20 000 CFU/ml and incubated at 37° C. for 24 hours. Readouts were “Clear” and “Foggy”.
# Different concentrations of “Carboxylic acid PDEA” is 3-(2-Pyridyldithio)propanoic acid (CAS: 68617-64-1) were also prepared in Yeast extract Peptone Dextrose (YPD) broth. Candida albicans were inoculated to a concentration of 20 000 CFU/ml and incubated at 37° C. for 24 hours. Readouts were “Clear” and “Foggy”.
# [4] = system: E. coli; assay: Combination therapy: Gentamycin with PDEA, visible growth; assay type: cell-based; settings: Gentamycin 0 μg/ml
# Experimental: (§10) Different concentrations of Gentamycin in Mueller Hinton were prepared in 3 different concentrations of PDEA. E. coli and S. aureus were inoculated (10^5) and were incubated O/N.
# (§11) Readouts were “Clear” and “Foggy”.
# [5] = system: S. aureus; assay: as above; assay type: cell-based; settings: Gentamycin 0 μg/ml
# Experimental: as §10, §11
structure (smiles),measurement,setting,value
"NCCSSc1ccccn1 [PDEA, 2-(Pyridyldithio)ethylamine (hydrochloride)]",% cell survival,[1]; 12.5 μM,99.37% and 98.6% and 99.88%
same,Absorbance unit,[1]; 12.5 μM,1.63 and 1.659 and 1.884
same,Absorbance unit - Blank,[1]; 12.5 μM,1.429 and 1.483 and 1.686
same,% cell survival,[1]; 25 μM,100.1391% and 95.0133% and 97.81%
same,Absorbance unit,[1]; 25 μM,1.641 and 1.605 and 1.849
same,Absorbance unit - Blank,[1]; 25 μM,1.44 and 1.429 and 1.651
same,% cell survival,[1]; 50 μM,76.43% and 73.67% and 89.6327%
same,Absorbance unit,[1]; 50 μM,1.3 and 1.284 and 1.711
same,Absorbance unit - Blank,[1]; 50 μM,1.099 and 1.108 and 1.513
same,% cell survival,[1]; 100 μM,65.3% and 80.52% and 62.09%
same,Absorbance unit,[1]; 100 μM,1.14 and 1.387 and 1.246
same,Absorbance unit - Blank,[1]; 100 μM,0.939 and 1.211 and 1.048
same,cytotoxicity at 50 µM,"[1]; Homo sapiens, T-24, 50 μM PDEA, 24 hrs, read-out: cell viability reduced by",10 to 26%
same,cytotoxicity at 200 µM,"[1]; Homo sapiens, T-24, 200 μM PDEA, 24 hrs, read-out: cell viability reduced by",83 to 100%
same,% cell survival,[2]; 12.5 μM,104.6875% and 96.65% and 91.2594%
same,Absorbance unit,[2]; 12.5 μM,1.229 and 1.224 and 1.119
same,Absorbance unit - Blank,[2]; 12.5 μM,1.072 and 1.069 and 0.971
same,% cell survival,[2]; 25 μM,109.082% and 103.9783% and 102.2556%
same,Absorbance unit,[2]; 25 μM,1.274 and 1.305 and 1.236
same,Absorbance unit - Blank,[2]; 25 μM,1.117 and 1.15 and 1.088
same,% cell survival,[2]; 50 μM,115.0391% and 99.55% and 123.5902%
same,Absorbance unit,[2]; 50 μM,1.335 and 1.256 and 1.463
same,Absorbance unit - Blank,[2]; 50 μM,1.178 and 1.101 and 1.315
same,% cell survival,[2]; 100 μM,83.4% and 52.8% and 57.42%
same,Absorbance unit,[2]; 100 μM,1.011 and 0.739 and 0.759
same,Absorbance unit - Blank,[2]; 100 μM,0.854 and 0.584 and 0.611
same,% cell survival,[2]; 200 μM,3.613% and 3.436% and 4.793%
same,Absorbance unit,[2]; 200 μM,0.194 and 0.193 and 0.199
same,Absorbance unit - Blank,[2]; 200 μM,0.037 and 0.038 and 0.051
same,cytotoxicity at 100 µM,"[2]; Homo sapiens, 100 μM PDEA, 24 hrs, read-out: cell viability reduced by",17 to 47%
same,cytotoxicity at 200 µM,"[2]; Homo sapiens, 200 μM PDEA, 24 hrs, read-out: cell viability reduced by",95 to 100%
same,visible growth readout,[3]; 0.01 mM,Foggy
same,visible growth readout,[3]; 0.025 mM,Foggy
same,visible growth readout,[3]; 0.05 mM,Foggy
same,visible growth readout,[3]; 0.1 mM,Foggy
same,visible growth readout,[3]; 0.2 mM,Foggy
same,visible growth readout,[3]; 0.4 mM,Foggy
same,visible growth readout,[3]; 0.8 mM,Clear
same,visible growth readout,[3]; 1.6 mM,Clear
same,MIC,"[3]; Candida albicans, 24 h",400 to 800 µM
same,Visible growth readout (Clear/Foggy),[4]; PDEA 0.0125 mM,Foggy
same,Visible growth readout (Clear/Foggy),[4]; PDEA 0.025 mM,Foggy
same,Visible growth readout (Clear/Foggy),[4]; PDEA 0.04 mM,Clear
same,Visible growth readout (Clear/Foggy),[5]; PDEA 0.0125 mM,Foggy
same,Visible growth readout (Clear/Foggy),[5]; PDEA 0.025 mM,Foggy
same,Visible growth readout (Clear/Foggy),[5]; PDEA 0.05 mM,Foggy
